In ChEMBL document CHEMBL4513101, “Naegleria gruberi Pathogen Box compounds screening” (2021):
The source made the active and inactive calls. Rule as the data show it: active = inhibition of 80% or more and inactive = less.

Test system: Naegleria gruberi
Assay: microbe, parasite or virus in culture
Type: functional
Details: NEG-M, CONC 10 uM
Description: Growth inhibiting activity of Naegleria gruberi in vitro

SMILES	inhibition at 10 µM
CC(C)(C)C(O)C(Oc1ccc(-c2ccccc2)cc1)n1cncn1 (stereo unspecified) [BITERTANOL]	81% (active)
Cc1nc(-c2ccccn2)nc(NCCc2ccc(S(C)(=O)=O)cc2)c1Cl	26.6% (not active)
CC1(C)OB(O)c2ccc(C3=NOC(c4cc(Cl)c(F)c(Cl)c4)(C(F)(F)F)C3)cc21 (stereo unspecified)	62.5% (not active)
CC(C)C(NC(=O)Cc1cccc2ccccc12)C(=O)Nc1cccc(C#N)c1 (stereo unspecified)	37.5% (not active)
Nc1nccc2ccc(Oc3ccncc3)cc12	3% (not active)
CC1=NN(c2nc3ccccc3s2)C(=O)C1Cc1cccc2ccccc12 (stereo unspecified)	57.2% (not active)
Cc1cc(NC(=O)c2ccc(Oc3ccc(Cl)cc3O)o2)no1	0% (not active)
CN(C)c1cc(NC(=O)Nc2ccccc2)c2ccccc2n1	22.3% (not active)
COc1ccc(C2CC(c3cccs3)=NN2C(=O)c2ccco2)cc1OC (stereo unspecified)	34.6% (not active)
O=C(COc1cccc(F)c1)Nc1nc(-c2ccccn2)cs1	24.2% (not active)
Cc1ccccc1CN1CCC(O)(c2ccc(Cl)c(C(F)(F)F)c2)CC1	47.4% (not active)
Cc1cc(C)n2nc(C(=O)Nc3cc(C(F)(F)F)ccc3N3CCOCC3)nc2n1	38% (not active)
Clc1ccc(CCNc2cc(-c3ccccc3)nc3ncnn23)cc1	44.5% (not active)
Cc1noc(C)c1C(=O)N1CCCC(c2[nH]c3c(C)cccc3c2-c2ccncc2)C1 (stereo unspecified)	27.1% (not active)
CC(C)(C)c1cc(C(=O)Nc2cccnc2)cc(C(=O)Nc2cccnc2)c1	28% (not active)
COc1ccc(C2(C(=O)Nc3ccc(Br)cc3)CCCC2)cc1	11.1% (not active)
c1ccc(Oc2ccc(-c3cc(C4CCOCC4)[nH]n3)cc2)cc1	34.2% (not active)
CC(C)n1nc(-c2cc3c(Cl)cccc3[nH]2)c2c(N)ncnc21	72.2% (not active)

SMILES	inhibition at 10 µM
Cn1ccnc1CNCCS(=O)(=O)c1cccc(Nc2ccc(-c3cccc(F)c3)cn2)c1	26.5% (not active)
CC(=O)Nc1ccc(-c2noc(CC3CCCN(Cc4cccc(F)c4C)C3)n2)cc1 (stereo unspecified)	37.2% (not active)
c1csc(-c2cnc3sc(NCC4CCOCC4)nn23)c1	39.9% (not active)
COc1ccc(C2=NN(C3CCCCCC3)C(=O)C2(C)C)cc1OCCCCOc1ccc(-c2nn[nH]n2)cc1	36.8% (not active)
Cc1nc2ccccn2c1C(=O)NCc1ccc(Cl)cc1	37.8% (not active)
COc1cc(Br)cc2cc(C(=O)Nc3cccc(C(F)(F)F)c3)c(=O)oc12	21% (not active)
CCN(CC)S(=O)(=O)c1ccc(C(=O)Nc2cc(C)nn2-c2nc(C)c(C)c(=O)[nH]2)cc1	41.8% (not active)
COc1ccc2nccc(NC(=O)C3CCN(CCc4ccc(Cl)cc4)CC3)c2n1	18.8% (not active)
O=C(Nc1nnc(-c2ccc(Cl)s2)o1)c1ccc(Cl)s1	21.9% (not active)
c1ccc(Oc2ccc(-c3cc(N4CCOCC4)[nH]n3)cc2)cc1	22.4% (not active)
O=C1O[C@@H](CO)CN1c1cc(F)c(C2=CCN(Cc3ccccc3)CC2)c(F)c1	8.3% (not active)
O=C(c1ccc(F)cc1)N(CCNc1ccccc1)c1ccccc1	24.1% (not active)
Cc1nn(C)cc1C(C)Nc1nncc(-c2ccc(C(F)(F)F)cc2)n1 (stereo unspecified)	0% (not active)
O=C(NC1CCN(c2ccnc3ccccc23)C1)c1cccc(C(F)(F)F)c1 (stereo unspecified)	6.7% (not active)
Cc1cc2nc(NC(=O)C(C)(C)C)nc(Cl)c2n1Cc1ccc(Cl)cc1	43% (not active)
CCOc1ccc(OCC(=O)Nc2cc(C)cc(C)c2)cc1	0% (not active)
CC(C)(C)OC(=O)N1CCN(c2nccc(-c3ccc(-c4ccc(Cl)cc4)s3)n2)CC1	17% (not active)
Cc1ncc(-c2ccnc(Nc3ccc(S(C)(=O)=O)cc3)n2)n1C(C)C [AZD-5438]	47.7% (not active)
